Earlier results, collected in patent publication US20160015644A1, “GASTRO-RETENTIVE SUSTAINED-RELEASE ORAL DOSAGE FORM OF A BILE ACID SEQUESTRANT” (IRONWOOD PHARMACEUTICALS, INC., priority 2013, published 2016).

Assays:
gastric proton pump [1] = target: gastric proton pump (Canis lupus familiaris, UniProt P50996); conditions: conscious, pentagastrin-stimulated fistula dog
gastric proton pump [2] = target: gastric proton pump (Homo sapiens, UniProt P20648)
gastric proton pump (Homo sapiens, UniProt P20648), sequence (P20648 whole entry): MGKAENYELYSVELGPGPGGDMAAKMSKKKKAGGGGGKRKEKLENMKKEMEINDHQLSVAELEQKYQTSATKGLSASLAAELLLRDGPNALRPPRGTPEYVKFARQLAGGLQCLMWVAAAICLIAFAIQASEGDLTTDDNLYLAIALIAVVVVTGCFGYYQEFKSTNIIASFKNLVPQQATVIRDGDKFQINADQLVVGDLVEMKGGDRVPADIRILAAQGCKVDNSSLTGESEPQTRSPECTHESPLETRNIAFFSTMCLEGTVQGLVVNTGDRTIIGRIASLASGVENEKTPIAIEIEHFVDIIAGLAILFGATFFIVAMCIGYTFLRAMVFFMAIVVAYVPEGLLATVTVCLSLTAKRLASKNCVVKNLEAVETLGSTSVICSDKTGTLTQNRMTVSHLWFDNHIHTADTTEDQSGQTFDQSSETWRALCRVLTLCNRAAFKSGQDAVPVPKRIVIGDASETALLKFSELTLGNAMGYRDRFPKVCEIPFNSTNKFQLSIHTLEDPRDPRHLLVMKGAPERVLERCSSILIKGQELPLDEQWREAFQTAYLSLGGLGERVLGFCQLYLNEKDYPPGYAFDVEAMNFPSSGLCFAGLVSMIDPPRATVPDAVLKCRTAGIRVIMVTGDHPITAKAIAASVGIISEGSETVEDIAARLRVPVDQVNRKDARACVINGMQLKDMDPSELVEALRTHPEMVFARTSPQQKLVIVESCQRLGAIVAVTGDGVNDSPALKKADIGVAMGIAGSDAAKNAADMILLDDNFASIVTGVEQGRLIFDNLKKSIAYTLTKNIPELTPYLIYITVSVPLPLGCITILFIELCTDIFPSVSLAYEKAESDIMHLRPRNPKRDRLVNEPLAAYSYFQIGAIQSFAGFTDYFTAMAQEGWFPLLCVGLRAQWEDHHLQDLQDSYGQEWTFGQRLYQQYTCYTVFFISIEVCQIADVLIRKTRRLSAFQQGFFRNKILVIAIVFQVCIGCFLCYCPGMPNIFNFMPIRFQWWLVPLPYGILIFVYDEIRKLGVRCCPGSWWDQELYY
gastric proton pump (Homo sapiens, UniProt P20648), sequence (P51164 whole entry partner): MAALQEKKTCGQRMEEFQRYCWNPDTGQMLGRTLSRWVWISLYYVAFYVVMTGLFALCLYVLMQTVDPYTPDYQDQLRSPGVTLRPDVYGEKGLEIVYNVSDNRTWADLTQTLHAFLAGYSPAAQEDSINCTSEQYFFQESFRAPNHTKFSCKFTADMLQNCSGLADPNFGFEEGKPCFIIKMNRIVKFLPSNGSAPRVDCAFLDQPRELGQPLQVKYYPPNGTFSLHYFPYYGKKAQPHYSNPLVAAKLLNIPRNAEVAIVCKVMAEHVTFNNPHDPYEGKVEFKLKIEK

gastric proton pump (Canis lupus familiaris, UniProt P50996), sequence (P50996 whole entry): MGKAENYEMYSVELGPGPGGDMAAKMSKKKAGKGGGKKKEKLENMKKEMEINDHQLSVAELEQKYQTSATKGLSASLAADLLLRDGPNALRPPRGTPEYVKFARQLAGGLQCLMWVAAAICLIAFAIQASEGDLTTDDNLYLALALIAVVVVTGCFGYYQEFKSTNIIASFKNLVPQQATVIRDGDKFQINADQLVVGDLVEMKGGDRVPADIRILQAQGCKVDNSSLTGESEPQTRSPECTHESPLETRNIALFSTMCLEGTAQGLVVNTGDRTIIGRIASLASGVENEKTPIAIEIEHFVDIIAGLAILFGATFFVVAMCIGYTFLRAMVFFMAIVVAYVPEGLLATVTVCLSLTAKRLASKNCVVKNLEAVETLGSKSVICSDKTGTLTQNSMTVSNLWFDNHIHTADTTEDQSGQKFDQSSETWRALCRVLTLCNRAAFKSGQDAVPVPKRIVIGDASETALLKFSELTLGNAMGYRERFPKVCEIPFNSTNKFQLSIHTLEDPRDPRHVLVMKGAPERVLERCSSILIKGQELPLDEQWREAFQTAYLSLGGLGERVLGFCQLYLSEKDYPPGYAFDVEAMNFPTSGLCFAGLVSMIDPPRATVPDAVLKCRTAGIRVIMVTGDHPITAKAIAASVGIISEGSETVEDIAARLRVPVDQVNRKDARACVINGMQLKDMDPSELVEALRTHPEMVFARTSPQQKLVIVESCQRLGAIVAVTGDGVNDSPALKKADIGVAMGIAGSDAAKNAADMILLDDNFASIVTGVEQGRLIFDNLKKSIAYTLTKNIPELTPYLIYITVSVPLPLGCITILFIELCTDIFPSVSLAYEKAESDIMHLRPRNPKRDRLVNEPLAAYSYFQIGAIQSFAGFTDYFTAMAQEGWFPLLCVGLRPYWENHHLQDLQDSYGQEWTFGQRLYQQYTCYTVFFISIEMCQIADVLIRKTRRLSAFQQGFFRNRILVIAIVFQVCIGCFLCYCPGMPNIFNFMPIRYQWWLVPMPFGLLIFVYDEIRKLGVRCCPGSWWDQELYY
gastric proton pump (Canis lupus familiaris, UniProt P50996), sequence (P33704 whole entry partner): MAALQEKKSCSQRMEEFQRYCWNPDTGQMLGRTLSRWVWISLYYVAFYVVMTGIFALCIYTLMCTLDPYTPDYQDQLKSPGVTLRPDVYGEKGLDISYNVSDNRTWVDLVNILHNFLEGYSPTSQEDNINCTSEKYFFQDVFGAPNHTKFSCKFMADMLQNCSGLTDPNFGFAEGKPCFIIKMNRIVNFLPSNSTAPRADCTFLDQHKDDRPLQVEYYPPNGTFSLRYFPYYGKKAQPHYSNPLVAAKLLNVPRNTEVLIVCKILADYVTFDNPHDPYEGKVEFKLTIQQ

For `COC(=O)Nc1cccc(C)c1CNc1cccn2c(C)c(C)nc12` [BY841, (8-(2-methoxcarbonylamino-6-methyl-phenylmethylamino)-2,3-dimethyl-imida [1,2-a]-pyridine)], the “intragastric pH” value (gastric proton pump [1]) is given as no more than 6, the “comparison with ranitidine and omeprazole” value (gastric proton pump [1]; elevation of intragastric pH) is given as “superior to both ranitidine and omeprazole” and the “effectiveness in comparison with the standard dose of omeprazole” value (gastric proton pump [2]; 50 mg or 100 mg twice daily, Day one of treatment) is given as “markedly more effective”. The “potency in comparison with the standard dose of omeprazole” value (gastric proton pump [2]; 50 mg or 100 mg twice daily, following repeated daily administration) was “at least as potent as omeprazole” and the “intragastric pH” value (gastric proton pump [2]; single 50 mg oral dose) was “about 6”.
